Assay results taken from ChEMBL document CHEMBL3817755, “Design, synthesis and biological evaluation of indazolepyrimidine based derivatives as anticancer agents with anti-angiogenic and antiproliferative activities” (Medchemcomm, 2016).

Target: Vascular endothelial growth factor receptor 2 (Homo sapiens, UniProt P35968)
Test: Inhibition of VEGFR-2 (unknown origin) at 10 uM after 1 hr by Z'LYTE assay

Vascular endothelial growth factor receptor 2, sequence (P35968 whole entry): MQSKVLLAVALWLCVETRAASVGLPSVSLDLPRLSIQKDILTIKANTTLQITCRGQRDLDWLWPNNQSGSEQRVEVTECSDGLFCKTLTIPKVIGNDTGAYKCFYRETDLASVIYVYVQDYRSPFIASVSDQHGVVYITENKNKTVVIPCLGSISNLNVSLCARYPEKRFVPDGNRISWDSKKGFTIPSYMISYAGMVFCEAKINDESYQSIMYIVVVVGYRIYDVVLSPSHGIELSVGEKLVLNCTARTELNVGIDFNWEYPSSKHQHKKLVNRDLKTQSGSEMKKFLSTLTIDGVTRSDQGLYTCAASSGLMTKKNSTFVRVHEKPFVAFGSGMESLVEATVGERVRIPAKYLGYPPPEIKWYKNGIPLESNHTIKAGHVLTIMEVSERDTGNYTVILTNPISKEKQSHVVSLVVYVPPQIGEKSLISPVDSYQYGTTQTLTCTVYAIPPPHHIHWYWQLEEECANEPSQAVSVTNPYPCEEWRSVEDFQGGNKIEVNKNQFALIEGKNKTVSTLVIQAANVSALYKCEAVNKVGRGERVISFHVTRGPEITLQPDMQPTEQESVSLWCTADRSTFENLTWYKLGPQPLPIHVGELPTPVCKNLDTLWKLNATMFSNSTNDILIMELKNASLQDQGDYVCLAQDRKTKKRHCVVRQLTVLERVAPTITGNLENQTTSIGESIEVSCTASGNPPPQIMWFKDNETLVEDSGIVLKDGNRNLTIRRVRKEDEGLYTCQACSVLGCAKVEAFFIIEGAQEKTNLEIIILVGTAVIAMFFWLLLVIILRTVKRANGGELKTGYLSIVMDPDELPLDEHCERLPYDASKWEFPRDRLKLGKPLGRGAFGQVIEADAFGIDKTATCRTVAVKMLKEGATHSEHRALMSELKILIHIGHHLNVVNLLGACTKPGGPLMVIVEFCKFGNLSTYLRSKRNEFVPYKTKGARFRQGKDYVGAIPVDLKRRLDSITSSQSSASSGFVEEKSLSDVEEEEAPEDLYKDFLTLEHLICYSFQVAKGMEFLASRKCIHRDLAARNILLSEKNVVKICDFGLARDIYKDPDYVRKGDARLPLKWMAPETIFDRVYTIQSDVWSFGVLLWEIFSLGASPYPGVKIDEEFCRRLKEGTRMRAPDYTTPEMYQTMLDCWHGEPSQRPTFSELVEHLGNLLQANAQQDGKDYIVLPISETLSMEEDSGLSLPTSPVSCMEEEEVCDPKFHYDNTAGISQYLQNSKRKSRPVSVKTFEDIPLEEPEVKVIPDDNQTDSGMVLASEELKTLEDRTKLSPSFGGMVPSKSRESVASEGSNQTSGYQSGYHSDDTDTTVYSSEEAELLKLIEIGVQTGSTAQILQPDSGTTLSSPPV

Compound	inhibition [%]
Cc1c2ccc(Nc3ccnc(Nc4ccc(S(N)(=O)=O)cc4)n3)cc2nn1C	60.8
Cc1c2ccc(Nc3ccnc(Nc4ccc(F)cc4)n3)cc2nn1C	63.8
